From PubChem BioAssay (NCI)
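Step 1: Grow cells in 96-well plates. Step 2: Expose to compound for 48 hours at 5 concentrations. Step 3: Interpolate endpoints linearly; if unreached, use highest concentration. TGI: total growth inhibition.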

Columns and labels:
Assay in all cases: DTP human tumour cell line panel, 48 h
[1] = tested on: 786-0 renal
[2] = tested on: A498 renal
[3] = tested on: A549 NSCLC
[4] = tested on: ACHN renal
[5] = tested on: BT-549 breast
[6] = tested on: CAKI-1 renal
[7] = tested on: CCRF-CEM leukemia
[8] = tested on: COLO 205 colon
[9] = tested on: DU-145 prostate
[10] = tested on: EKVX NSCLC
[11] = tested on: HCC-2998 colon
[12] = tested on: HCT-116 colon
[13] = tested on: HCT-15 colon
[14] = tested on: HL-60(TB) leukemia
[15] = tested on: HOP-62 NSCLC
[16] = tested on: HOP-92 NSCLC
[17] = tested on: HS 578T breast
[18] = tested on: HT29 colon
[19] = tested on: IGROV1 ovarian
[20] = tested on: KM12 colon
[21] = tested on: LOX IMVI melanoma
[22] = tested on: M14 melanoma
[23] = tested on: MALME-3M melanoma
[24] = tested on: MCF7 breast
[25] = tested on: MDA-MB-231 breast
[26] = tested on: MDA-MB-435
[27] = tested on: MDA-N
[28] = tested on: MOLT-4 leukemia
[29] = tested on: NCI-H226 lung
[30] = tested on: NCI-H23 lung
[31] = tested on: NCI-H460 lung
[32] = tested on: NCI-H522 lung
[33] = tested on: NCI/ADR-RES ovarian
[34] = tested on: OVCAR-3 ovarian
[35] = tested on: OVCAR-4 ovarian
[36] = tested on: OVCAR-5 ovarian
[37] = tested on: OVCAR-8 ovarian
[38] = tested on: PC-3 prostate
[39] = tested on: RXF 393 renal
[40] = tested on: SF-268 CNS
[41] = tested on: SF-295 CNS
[42] = tested on: SF-539 CNS
[43] = tested on: SK-MEL-2 melanoma
[44] = tested on: SK-MEL-28 melanoma
[45] = tested on: SK-MEL-5 melanoma
[46] = tested on: SK-OV-3 ovarian
[47] = tested on: SN12C renal
[48] = tested on: SNB-19 CNS
[49] = tested on: SNB-75 CNS
[50] = tested on: SR leukemia
[51] = tested on: SW-620 colon
[52] = tested on: T-47D breast
[53] = tested on: TK-10 renal
[54] = tested on: U251 CNS
[55] = tested on: UACC-257 melanoma
[56] = tested on: UACC-62 melanoma
[57] = tested on: UO-31 renal
[58] = tested on: K-562 leukemia
[59] = tested on: RPMI-8226 leukemia

Compound: COC(=O)/C(=N/NC(N)=O)C(C(=O)C(=O)Nc1ccc(C)cc1)c1nc2ccc(C(=O)c3ccccc3)cc2[nH]c1=O (stereo unspecified)
- TGI [1]: > 100 µM
- TGI [2]: 89.6 µM
- TGI [3]: > 100 µM
- TGI [4]: > 100 µM
- TGI [5]: > 100 µM
- TGI [6]: > 100 µM
- TGI [7]: > 100 µM
- TGI [8]: > 100 µM
- TGI [9]: > 100 µM
- TGI [10]: > 100 µM
- TGI [11]: > 100 µM
- TGI [12]: > 100 µM
- TGI [13]: > 100 µM
- TGI [14]: > 100 µM
- TGI [15]: > 100 µM
- TGI [16]: > 100 µM
- TGI [17]: > 100 µM
- TGI [18]: > 100 µM
- TGI [19]: > 100 µM
- TGI [20]: > 100 µM
- TGI [21]: > 100 µM
- TGI [22]: > 100 µM
- TGI [23]: > 100 µM
- TGI [24]: > 100 µM
- TGI [25]: > 100 µM
- TGI [26]: > 100 µM
- TGI [27]: > 100 µM
- TGI [28]: > 100 µM
- TGI [29]: > 100 µM
- TGI [30]: > 100 µM
- TGI [31]: > 100 µM
- TGI [32]: > 100 µM
- TGI [33]: > 100 µM
- TGI [34]: > 100 µM
- TGI [35]: > 100 µM
- TGI [36]: > 100 µM
- TGI [37]: > 100 µM
- TGI [38]: > 100 µM
- TGI [39]: > 100 µM
- TGI [40]: > 100 µM
- TGI [41]: > 100 µM
- TGI [42]: > 100 µM
- TGI [43]: > 100 µM
- TGI [44]: > 100 µM
- TGI [45]: > 100 µM
- TGI [46]: > 100 µM
- TGI [47]: > 100 µM
- TGI [48]: > 100 µM
- TGI [49]: > 100 µM
- TGI [50]: 41.8 µM
- TGI [51]: > 100 µM
- TGI [52]: > 100 µM
- TGI [53]: > 100 µM
- TGI [54]: > 100 µM
- TGI [55]: > 100 µM
- TGI [56]: > 100 µM
- TGI [57]: > 100 µM

Compound: C=C1c2nc3ccccc3n2C=C(c2ccc(OC)cc2)N1c1ccccc1
- TGI [1]: > 100 µM
- TGI [2]: > 100 µM
- TGI [3]: > 100 µM
- TGI [4]: > 100 µM
- TGI [5]: 71 µM
- TGI [6]: > 100 µM
- TGI [7]: > 57.9 µM
- TGI [8]: > 70.9 µM
- TGI [9]: > 100 µM
- TGI [10]: > 100 µM
- TGI [11]: 39.8 µM
- TGI [12]: > 100 µM
- TGI [13]: > 56.8 µM
- TGI [14]: 7.93 µM
- TGI [15]: > 100 µM
- TGI [16]: > 100 µM
- TGI [17]: > 96.6 µM
- TGI [18]: 26.7 µM
- TGI [19]: > 100 µM
- TGI [58]: > 100 µM
- TGI [20]: > 47.2 µM
- TGI [21]: > 100 µM
- TGI [22]: > 60.4 µM
- TGI [23]: 49.8 µM
- TGI [24]: > 63.5 µM
- TGI [25]: > 100 µM
- TGI [26]: 4.83 µM
- TGI [27]: 8.56 µM
- TGI [28]: > 55.9 µM
- TGI [29]: 22.6 µM
- TGI [30]: 98.5 µM
- TGI [31]: > 34.5 µM
- TGI [32]: 27.2 µM
- TGI [33]: 9.64 µM
- TGI [34]: 98 µM
- TGI [35]: > 100 µM
- TGI [36]: > 100 µM
- TGI [37]: > 69.3 µM
- TGI [38]: > 100 µM
- TGI [59]: 45.1 µM
- TGI [39]: > 76.1 µM
- TGI [40]: > 100 µM
- TGI [41]: > 55.6 µM
- TGI [42]: > 91.2 µM
- TGI [43]: 42.4 µM
- TGI [44]: > 96.7 µM
- TGI [45]: 42.2 µM
- TGI [46]: > 100 µM
- TGI [47]: > 100 µM
- TGI [48]: 48.3 µM
- TGI [49]: 58.3 µM
- TGI [50]: > 24.5 µM
- TGI [51]: > 65.4 µM
- TGI [52]: 98.3 µM
- TGI [53]: > 100 µM
- TGI [54]: > 100 µM
- TGI [55]: > 100 µM
- TGI [56]: > 57.6 µM
- TGI [57]: > 91.3 µM
